Assay results: ChEMBL document CHEMBL2074164, “Characterization of the transport of the bicyclic peptide phalloidin by human hepatic transport proteins” (Naunyn Schmiedebergs Arch Pharmacol, 2003)
*1 amine or outer side, *2 acyl side, *3 side chain or, on linkers, in order; H or OH if unused. Where a SMILES comes first, the peptide text is derived from it. Bridges are numbered along the chain shown (N, C = ends). [ ]: non-standard residue; d: D form. Trp(2-yl) = O=C([C@H](Cc1c([*:3])[nH]c2ccccc12)N[*:1])[*:2]; Leu(4R-OH,5-OH) = C[C@](O)(CO)C[C@H](N)C(=O)O; cisHyp = O=C(O)[C@@H]1C[C@H](O)CN1

Key:
Format in all cases: functional, cell-based
[1] = molecular target: T1, Solute carrier organic anion transporter family member 1B1 (Homo sapiens, UniProt Q9Y6L6); assay: TP_TRANSPORTER: inhibition of Phalloidin uptake (Phalloidin: 1 uM) in OATP-C-expressing HEK293 cells
T1 sequence (Q9Y6L6 whole entry): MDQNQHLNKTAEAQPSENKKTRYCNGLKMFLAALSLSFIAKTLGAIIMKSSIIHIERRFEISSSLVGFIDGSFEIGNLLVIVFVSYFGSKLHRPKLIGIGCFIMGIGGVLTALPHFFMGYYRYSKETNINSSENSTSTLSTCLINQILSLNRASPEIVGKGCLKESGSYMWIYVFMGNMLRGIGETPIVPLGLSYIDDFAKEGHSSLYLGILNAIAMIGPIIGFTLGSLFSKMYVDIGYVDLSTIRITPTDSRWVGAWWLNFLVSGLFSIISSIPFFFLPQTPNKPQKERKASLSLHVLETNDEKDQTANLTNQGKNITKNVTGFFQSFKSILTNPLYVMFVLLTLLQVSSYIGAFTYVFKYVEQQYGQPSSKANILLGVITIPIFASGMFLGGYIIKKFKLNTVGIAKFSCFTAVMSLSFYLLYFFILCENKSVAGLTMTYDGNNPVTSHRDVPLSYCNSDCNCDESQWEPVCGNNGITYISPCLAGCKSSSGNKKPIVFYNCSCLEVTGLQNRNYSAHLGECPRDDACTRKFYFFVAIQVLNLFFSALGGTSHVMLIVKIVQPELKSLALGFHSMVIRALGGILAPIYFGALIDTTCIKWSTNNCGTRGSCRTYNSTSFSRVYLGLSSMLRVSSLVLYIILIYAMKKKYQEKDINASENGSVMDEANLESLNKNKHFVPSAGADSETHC

[2] = molecular target: Canalicular multispecific organic anion transporter 1/Solute carrier organic anion transporter family member 1B1 (Homo sapiens, UniProt Q92887+Q9Y6L6); assay: TP_TRANSPORTER: transepithelial transport (basal to apical) of Phalloidin at a concentration of 1 uM in MRP2- and OATP-C-expressing MDCKII cells; conditions: dog, mdck-ii
[3] = molecular target: T1, Solute carrier organic anion transporter family member 1B1; assay: TP_TRANSPORTER: inhibition of Phalloidin uptake (Phalloidin: 1 uM) by alpha-Amanitin at a concentration of 20 u M in OATP-C-expressing HEK293 cells; conditions: hek293, 20 µM
[4] = substrate: C[C@@H]1NC(=O)[C@H](C[C@@](C)(O)CO)NC(=O)[C@@H]2Cc3c([nH]c4ccccc34)SC[C@H](NC(=O)[C@@H]([C@H](C)O)NC1=O)C(=O)N1C[C@@H](O)C[C@H]1C(=O)N[C@@H](C)C(=O)N2; assay: TP_TRANSPORTER: uptake in OATP-C-expressing HEK293 cells

`CC(C)[C@@H]1NC(=O)[C@@H](Cc2ccccc2)NC(=O)[C@H](Cc2ccccc2)NC(=O)[C@@H]2CCCN2C(=O)[C@@H]2CCCN2C(=O)[C@H](Cc2ccccc2)NC(=O)[C@@H](Cc2ccccc2)NC(=O)[C@H](C)NC(=O)[C@@H]2CCCN2C(=O)[C@@H]2CCCN2C1=O` [ANTAMANIDE] gave an IC50 [1] of 1000 nM.

In the case of `C[C@@H]1NC(=O)[C@H](C[C@@](C)(O)CO)NC(=O)[C@@H]2Cc3c([nH]c4ccccc34)SC[C@H](NC(=O)[C@@H]([C@H](C)O)NC1=O)C(=O)N1C[C@@H](O)C[C@H]1C(=O)N[C@@H](C)C(=O)N2` [PHALLOIDIN] (cyclo(A[dT]C[cisHyp]A[Trp(2-yl)][Leu(4R-OH,5-OH)]); thioether 3-6), the Activity [2] is reported as “substrate [+]”.

`CO[C@H]1C[C@@H]2CC[C@@H](C)[C@@](O)(O2)C(=O)C(=O)N2CCCC[C@H]2C(=O)O[C@H]([C@H](C)C[C@@H]2CC[C@@H](O)[C@H](OC)C2)CC(=O)[C@H](C)/C=C(\C)[C@@H](O)[C@@H](OC)C(=O)[C@H](C)C[C@H](C)/C=C/C=C/C=C/1C` [SIROLIMUS] showed an IC50 [1] of 1100 nM.

Molecule `O=C1OC(c2ccc(O)c(S(=O)(=O)O)c2)(c2ccc(O)c(S(=O)(=O)O)c2)c2c(Br)c(Br)c(Br)c(Br)c21` [SULFOBROMOPHTHALEIN SODIUM] has an IC50 [1] of 50 nM.

`C=CC[C@@H]1/C=C(\C)C[C@H](C)C[C@H](OC)[C@H]2O[C@@](O)(C(=O)C(=O)N3CCCC[C@H]3C(=O)O[C@H](/C(C)=C/[C@@H]3CC[C@@H](O)[C@H](OC)C3)[C@H](C)[C@@H](O)CC1=O)[C@H](C)C[C@@H]2OC` [TACROLIMUS ANHYDROUS] gave an IC50 [1] of 3700 nM.

For `CC[C@H](C)[C@@H]1NC(=O)CNC(=O)[C@@H]2Cc3c([nH]c4cc(O)ccc34)[S+]([O-])C[C@@H](NC(=O)CNC1=O)C(=O)N[C@@H](CC(N)=O)C(=O)N1C[C@H](O)C[C@H]1C(=O)N[C@@H]([C@@H](C)[C@@H](O)CO)C(=O)N2` (stereo partly drawn) [alpha-Amanitin], the Activity [3] was “is not an inhibitor [-]”.

B1: Solute carrier organic anion transporter family member 1B1 (Homo sapiens) (protein)
chain: T1 sequence (Q9Y6L6 whole entry)
For B1, the Km [4] was 39 µM.
